Data on eleven compounds can be found in paper PMC8868400, “Structure–Activity Relationships and Transcriptomic Analysis of Hypoxia-Inducible Factor Prolyl Hydroxylase Inhibitors” (Antioxidants, 2022).

For series [1], the system named is SH-SY5Y cells. Description: Compound toxicity at 48 h incubation without OGD. The series is classed as cell-based, human. The note with it: 8 μM. On the procedure: (§1) For oxygen-glucose deprivation (OGD) studies, 40,000 SH-SY5Y cells were plated in each well of 96-well plates. After overnight incubation, cells were treated with 1 and 3 μM concentrations of drugs for 24 h prior to OGD, at the onset of OGD, and at the onset of reperfusion. The compounds’ toxicity at the 1, 5, and 8 μM concentrations was assessed at 48 h. Oxygen glucose deprivation was performed as follows. The medium was replaced with DMEM containing no glucose, and then the cells were transferred to a sealed hypoxic chamber with 5% CO2-95% N2 atmosphere for 2 h. After 2 h incubation, the cells were removed from the hypoxic chamber and resupplied with a regular growth media for reperfusion/recovery. After 24 h incubation, cell viability was quantified using an MTT (4,5-dimethylthiazol-2-yl)-2,5-diphenyltetrazolium bromide, Sigma) assay.

The test system of series [2] is HIF1 ODD-luc reporter (intracellular HIF PHD), HIF1 ODD-luc/SH-SY5Y cell line. Description: HIF1 ODD-luc reporter assay. It is filed as cell-based, human. The following applies: for IC50 / Potency in HIF1 ODD-luc reporter assay (in words, comparative): SH-SY5Y, 3 h incubation; for IC50: read-out: IC50 of HIF1 ODD-luc reporter activation; for Interference of free iron with reporter activation: cells loaded with ferrous sulfate 20 min before drug. The protocol:
The reporter assay on the HIF1 ODD-luc/SH-SY5Y cell line was performed as described in [10]. Drugs were freshly prepared as 10 mM stock solutions in DMSO, and right before the experiment were diluted to 50×-fold to the final concentration in the well, so each well with 100 μL medium was inoculated with 2 μL of the drug solution. Cells were incubated for 3 h and then lysed and assayed for luciferase activity. To evaluate the effect of iron, the cells were loaded with the corresponding concentrations of ferrous sulfate in the medium for 20 min before the drug’s addition. All experiments were performed in triplicate. The fold activation with respect to the background luminescence in the presence 2 μL DMSO aliquot was plotted against drug concentrations. The results are shown as average ± SD.
The HIF1 ODD-luc reporter assay employs a cell line stably expressing a reporter vector providing the continuous production of an oxygen-dependent domain of HIF1α fused via its C-terminus to N-terminus of firefly luciferase. The steady-state level of the fusion protein depends on the ratio of the rates of its production (pcmv promoter) and degradation upon hydroxylation, binding to VHL and proteasomal degradation. […] Enzyme inhibition results in an immediate response in the form of luciferase fusion accumulation. The performance of the fusion reporter is equivalent to monitoring the actual fate of intracellular HIFs upon enzyme inhibition. […] However, both vadadustat and roxadustat worked in a very high micromolar range (IC50 above 30 μM). […] The use of high concentrations of the αKG mimetic drugs to overcome the competition from the intracellular αKG may result in targeting other αKG-dependent pathways that are unrelated to αKG-dependent dioxygenases, such as kynurenine-oxoglutarate transaminase and αKG dehydrogenase E1. In fact, DMOG is known to inhibit the αKG dehydrogenase complex and oxygen consumption by mitochondria. This plausible break in specificity could be a reason for concerns on the safety of HIF PHD inhibitor drugs in comparison with the use of recombinant EPO [17].
Background: Reporter assays use an easily measured gene product as a stand-in for the process of interest.

A further series deals with SH-SY5Y cell line. The series can be described thus: Transcriptomic microarray analysis (Gene Chip Human Transcriptome Array 2.0). The note with it: for Number of downregulated genes / Number of upregulated genes: 0.5 mM DMOG, 30 μM roxadustat, 2 μM oxyquinolines; for Downregulated genes in common with hypoxia / Upregulated genes in common with hypoxia: hypoxia 2 h + 5 h; for Suppression of ATF4 signaling pathway: heatmap. The series is classed as cell-based. On the procedure: Transcriptomic microanalysis was performed as described in [12]. The human neuroblastoma SH-SY5Y cell line was grown on DMEM/F12 (Paneco Ltd., Moscow, Russia) containing 10% FBS (Thermo Fisher Scientific Inc., Waltham, MA, USA), and the cells were plated in 6-well plates (TPP, Russia) at a cell/well density of 500,000 the day before the drug treatment. The drugs—2 μM oxyquinoline(s), 30 μM (roxadustat), and 0.5 mM DMOG—were added to the cells in triplicate, and the cells were incubated for 5 h. The control wells contained 4 μL DMSO. The hypoxic conditions were created by incubation in 1% O2, 5% CO2, and 94% N2 atmosphere for 2 h (the medium was incubated under the same conditions for 16 h before addition to the cells). After 2 h hypoxia, the cells were returned to the original incubation conditions in a CO2 incubator and kept for another 5 h. After incubation, the cells were lysed with the Qiazol reagent (Qiagen N.V., Venlo, The Netherlands). The RNA was isolated using the RNeasy Micro Kit (Qiagen); the qualitative and quantitative analysis of the RNA was performed as described earlier. The RNA integrity number (RIN) values for all the samples were above 9.5. All steps of the sample preparation, hybridization, washing, staining, and microchip scanning were performed as described before. The mRNA expression profile was analyzed using the Gene Chip Human Transcriptome Array 2.0 (Thermo Fisher Scientific Inc., Waltham, MA, USA). The CEL files obtained during microchip scanning were treated with the Transcriptome Analysis Console 2.0 application (Thermo Fisher Scientific-Affymetrix, Santa Clara, CA, USA). Unannotated probe sets were excluded from the analysis. The results obtained were statistically processed using the TAC 4.0 software (Thermo Fisher Scientific). The statistical reliability for the differences in the expression levels between the intact cells and cells treated with the studied compounds was evaluated using the monofactorial analysis of variance (ANOVA) with the Benjamini–Hochberg correction. The significance threshold was 0.05.

For series [3], the system named is SH-SY5Y cells. The series can be described thus: Oxygen-glucose deprivation (OGD) model, MTT viability. It is filed as cell-based, human. The following applies: 24 h pretreatment. On the procedure:
as §1
The oxygen deprivation model (OGD) was performed using the human neuroblastoma SH-SY5Y cell line. […] The branched oxyquinoline drugs were added either 24 h before the onset of OGD, at the onset of ischemia induced by OGD insult, or with the reperfusion media at the end of OGD, as described in Methods and shown in Figure 6a.

On the set-up of series [4]: method as in PMID 20416509. The following applies: estimated; read-out: KD of iron chelation; cited from earlier work.
Where [5] appears, read: 5 h treatment, 1.5-fold cut-off.
Where [6] appears, read: 5 h treatment, 1.5-fold cut-off, listed as FG.
Where [7] appears, read: 5 h treatment, 1.5-fold cut-off, listed as 570-0720.

“And” between values parts separate entries of the source, which are not always exact repeats. Identical values can stand only once. “Also recorded” adds a separate entry of the source. Like-named read-outs stand apart in the source and are kept apart here.

As a reminder, the IC50 is the concentration at which inhibition is half-maximal. For orientation: viability means a read-out of living cells in per cent, often relative to untreated cells. As usually defined, the Kd is the constant that tells how readily two partners part at equilibrium.

`Cc1ccc2ccc(C(Nc3ccccn3)c3ccc(C(C)C)cc3)c(O)c2n1` (stereo not shown) [compound 7]: in the series with SH-SY5Y cells [1], the “Toxicity at prolonged incubation” value is “least toxic”.
With `O=C(O)CNC(=O)c1ncc(-c2cccc(Cl)c2)cc1O` [vadadustat, reference compound], the IC50 in series [2] (Homo sapiens, 3 h) was over 30000 nM.
With `Cc1ccnc(NC(c2ccc(C(C)C)cc2)c2ccc3cccnc3c2O)c1` (stereo not shown) [4896-3249], the IC50 in series [2] (Homo sapiens, 3 h) stood at 1000 nM. In series [2], the “Potency in HIF1 ODD-luc reporter assay (in words, comparative)” value (“Potency in HIF1 ODD-luc reporter assay” for short) was “equally active”. Further, in the series on SH-SY5Y cell line (setting [5]), the “Downregulated genes in common with 570-0720” value is on record as 231 genes, the “Downregulated genes in common with DMOG” value is reported as 52 genes, the “Downregulated genes in common with FG (roxadustat)” value (“Downregulated genes … (roxadustat)” for short) is on record as 73 genes and the “Upregulated genes in common with 570-0720” value was found to be 524 genes. Moreover, in the series with SH-SY5Y cell line (setting [5]), the “Upregulated genes in common with DMOG” value was determined as 188 genes, the “Upregulated genes in common with FG (roxadustat)” value (shortened to “Upregulated genes … (roxadustat)”) amounted to 257 genes, the “Number of downregulated genes” value is recorded as 386 genes and the “Number of upregulated genes” value stood at 1092 genes. Also, in the series on SH-SY5Y cell line (setting [5]), the “Downregulated genes in common with hypoxia” value worked out at 31 genes and the “Upregulated genes in common with hypoxia” value is listed as 152 genes. For the same compound, in the series on SH-SY5Y cell line (5 h treatment), the “Suppression of ATF4 signaling pathway” value is listed as “inhibits several pro-death pathways with ATF4 being one of them; also recorded: enhanced suppression”. Moreover, in the series on SH-SY5Y cells [3] (Homo sapiens, SH-SY5Y, 3 μM, insult alone 70%, MTT after 24 h recovery, read-out: Cell viability after OGD), the viability at 3 µM was found to be 90%.
`Oc1cccnc1NC(c1ccc(Cl)cc1)c1ccc2cccnc2c1O` (stereo not shown) [adaptaquin, reference compound]: the “Neuroprotection in OGD” value in the series on SH-SY5Y cells [3] (1–3 μM) was 20–30%.
Take `Cc1ccnc(NC(c2ccc(C(C)(C)C)cc2)c2cc(Cl)c3cccnc3c2O)c1` (stereo not shown) [5-chloro-neuradapt]: the “Potency in HIF1 ODD-luc reporter assay” value in series [2] is listed as “almost as active as the original compound”.
As to `Cc1nc(C(=O)NCC(=O)O)c(O)c2ccc(Oc3ccccc3)cc12` [roxadustat, reference compound], in series [2] (Homo sapiens, 3 h), the IC50 is over 30000 nM. In series [2] (listed as Roxadustat), the IC50 was about 25000 nM. Further, in series [2], the IC50 was found to be 30000 nM and the “Interference of free iron with reporter activation” value is listed as “not observed”. For the same compound, in the series with SH-SY5Y cell line (5 h treatment), the “Overlap of downregulated genes for the couple roxadustat and DMOG” value worked out at 80%; the “Share of downregulated genes overlapping with hypoxia” value is about 50%; the “Share of upregulated genes overlapping with those induced by hypoxia” value is “More than 30%”; the “Suppression of ATF4 signaling pathway” value is “weaker”. Also, in the series with SH-SY5Y cell line (setting [5]), the “Number of downregulated genes” value is listed as 200–260 genes, the “Number of upregulated genes” value is 600–700 genes, the “Downregulated genes in common with hypoxia” value was 96 genes and the “Upregulated genes in common with hypoxia” value is reported as 261 genes. Moreover, in the series on SH-SY5Y cell line (setting [6]), the “Number of downregulated genes” value is reported as 209 genes and the “Number of upregulated genes” value turned out to be 714 genes.
As to `Cc1ccc2ccc(C(Nc3ccccn3)c3ccc(C(C)C)cc3)c(O)c2n1` (stereo not shown) [5704-0720], in series [2] (Homo sapiens, 3 h), the IC50 came to 2000 nM. Also, the “Potency in HIF1 ODD-luc reporter assay” value in series [2] is “ca. two-fold less potent”. Also, the “Reduction in number of genes overlapped with roxadustat in comparison to isopropyl-neuradapt” value with SH-SY5Y cell line (2 μM, 5 h) is recorded as about 20%. Further, in the series on SH-SY5Y cell line (setting [5]), the “Downregulated genes in common with DMOG” value was found to be 38 genes, the “Downregulated genes … (roxadustat)” value is listed as 60 genes, the “Upregulated genes in common with DMOG” value turned out to be 126 genes and the “Upregulated genes … (roxadustat)” value is 195 genes. In addition, in the series on SH-SY5Y cell line (setting [5]), the “Number of downregulated genes” value is reported as 200–260 genes, the “Number of upregulated genes” value is 600–700 genes, the “Downregulated genes in common with hypoxia” value was 17 genes and the “Upregulated genes in common with hypoxia” value is given as 86 genes. In the series on SH-SY5Y cell line (setting [7]), the “Number of downregulated genes” value was found to be 259 genes and the “Number of upregulated genes” value is listed as 600 genes. In addition, in the series on SH-SY5Y cell line (5 h treatment), the “Suppression of ATF4 signaling pathway” value is “no suppression; also recorded: inactive”.
For `COC(=O)CNC(=O)C(=O)OC` [DMOG, dimethyl oxalylglycine, reference compound], in series [2], the “Potency in HIF1 ODD-luc reporter assay” value was “millimolar potency” and the IC50 turned out to be 500000 nM. In the series with SH-SY5Y cell line (5 h treatment), the “Overlap of downregulated genes for the couple roxadustat and DMOG” value is listed as 80%; the “Share of downregulated genes overlapping with hypoxia” value was about 50%; the “Share of upregulated genes overlapping with those induced by hypoxia” value was “More than 30%”; the “Suppression of ATF4 signaling pathway” value is on record as “weaker”. Moreover, in the series with SH-SY5Y cell line (setting [5]), the “Downregulated genes … (roxadustat)” value was 160 genes; the “Upregulated genes … (roxadustat)” value is 476 genes; the “Number of downregulated genes” value is 200–260 genes and 204 genes; the “Number of upregulated genes” value is 600–700 genes and 608 genes. In the series with SH-SY5Y cell line (setting [5]), the “Downregulated genes in common with hypoxia” value was 104 genes and the “Upregulated genes in common with hypoxia” value was found to be 279 genes.
As for `Cc1cc(C2CCCCC2)n(O)c(=O)c1` [ciclopirox], the Kd in series [4] is 50 nM.
With `Cc1ccnc(NC(c2ccc(C(C)(C)C)cc2)c2cc(Cl)c3cccnc3c2O)c1` (stereo not shown) [compound 8], in the series on SH-SY5Y cells [1], the “Toxicity at prolonged incubation” value is “least toxic”.
`Cc1ccnc(NC(c2ccc(C(C)(C)C)cc2)c2ccc3cccnc3c2O)c1` (stereo not shown) [4896-3212]: the IC50 in series [2] (Homo sapiens, 3 h) was determined as 1000 nM. Further, in series [2], the “Potency in HIF1 ODD-luc reporter assay” value is listed as “submicromolar IC50 values”; the IC50 was under 1000 nM; the “Interference of free iron with reporter activation” value was “interference of free iron with the reporter activation”.
